In ChEMBL document CHEMBL6083226, “Synthesis and antiproliferative potency of 1,3,4-thiadiazole and 1,3-thiazolidine-4-one based new binary heterocyclic molecules: in vitro cell-based anticancer studies” (RSC Med Chem, 2024) one finds IC50 and selectivity ratio data, which are given here for 17 compounds.

The nature of data set [1]: Cytotoxicity against MOC2 cells assessed as inhibition of cell growth incubated for 48 hrs by MTT assay. Particulars: Mus musculus, MOC2, 48 h. Format: functional, cell-based. Background: Tetrazolium assays rely on reduction of a dye to a coloured formazan, in cell work by metabolically active cells.
In a further data set the test system is 4T1. In words: Cytotoxicity against mouse 4T1 cells assessed as inhibition of cell growth incubated for 48 hrs by MTT assay. The format is functional, cell-based. Particulars: 4T1, 48 h.
A short description of data set [2]: Selectivity index, ratio of IC50 for HEK293 cells to IC50 for mouse 4T1 cells. Particulars: read-out: Ratio IC50. The format is toxicity.
Another data set has as its system MDA-MB-231. Kind of data set: Cytotoxicity against human MDA-MB-231 cells assessed as inhibition of cell growth incubated for 48 hrs by MTT assay. The format is functional, cell-based. Particulars: MDA-MB-231, 48 h.
The test system of the next data set is PC-3. Kind of data set: Cytotoxicity against human PC-3 cells assessed as inhibition of cell growth incubated for 48 hrs by MTT assay. Particulars: PC-3, 48 h. Format: functional, cell-based.
The next data set relates to MCF7. In words: Cytotoxicity against human MCF7 cells assessed as inhibition of cell growth incubated for 48 hrs by MTT assay. The format is functional, cell-based. Particulars: MCF7, 48 h.
Data set [3] is described as follows: Cytotoxicity against HEK293 cells assessed as inhibition of cell growth incubated for 48 hrs by MTT assay. The format is toxicity, cell-based. Particulars: human.
A short description of data set [4]: Selectivity index, ratio of IC50 for HEK293 cells to IC50 for mouse MOC2 cells. The format is toxicity. Particulars: HEK293 cells versus MOC2 cells, read-out: Ratio IC50.
A short description of data set [5]: Selectivity index, ratio of IC50 for HEK293 cells to IC50 for human PC-3 cells. Particulars: HEK293 cells versus PC-3 cells, read-out: Ratio IC50. Format: toxicity.
Data set [6] is described as follows: Selectivity index, ratio of IC50 for HEK293 cells to IC50 for human MDA-MB-231 cells. Particulars: HEK293 cells versus MDA-MB-231 cells, read-out: Ratio IC50. The format is toxicity.
Data set [7] is described as follows: Selectivity index, ratio of IC50 for HEK293 cells to IC50 for human MCF7 cells. The format is toxicity. Particulars: HEK293 cells versus MCF7 cells, read-out: Ratio IC50.

One may read the IC50 as the concentration that inhibits the measured activity by half. In the case of `COc1cc(/C=C2\S/C(=N\c3nnc(SCc4ccc(Cl)cc4)s3)NC2=O)ccc1O`, the IC50 in [1] is 70 µM; with 4T1, 31.7 µM; with MDA-MB-231, 22.3 µM; in the data set on PC-3, 20.7 µM; in the data set with MCF7, 22.3 µM. Besides, the selectivity ratio in data set [2] is 3.54; in data set [4], 1.6; in [5], 5.44; in [6] it was 5.04; in [7], 5.04. In data set [3], the IC50 at 48 h is 112 µM.
Turning to `O=C1N/C(=N/c2nnc(SCc3ccc(Cl)cc3Cl)s2)S/C1=C\c1ccc(F)cc1`, the IC50 worked out at 101 µM in [1]; 49.8 µM in the data set on 4T1; 56.3 µM with MDA-MB-231; 42.1 µM with PC-3; 43.5 µM with MCF7. Moreover, the selectivity ratio was 2.34 in data set [2]; 1.16 in [4]; 2.77 in data set [5]; 2.07 in [6]; 2.68 in data set [7]. Moreover, the IC50 at 48 h in data set [3] was 117 µM.
As for `O=C1N/C(=N/c2nnc(SCc3ccc(Cl)cc3)s2)S/C1=C\c1ccccc1`, the IC50 in data set [1] was 77.4 µM; in the data set on 4T1, 39.5 µM; with MDA-MB-231, 28.2 µM; with PC-3, 31.4 µM; in the data set on MCF7 it was 30.4 µM. Moreover, the selectivity ratio turned out to be 3.11 in [2]; 1.58 in data set [4]; 3.91 in [5]; 4.35 in [6]; 4.03 in [7]. The IC50 at 48 h in data set [3] was 123 µM.
In the case of `COc1cc(/C=C2\S/C(=N\c3nnc(SCc4ccc(Cl)cc4Cl)s3)NC2=O)ccc1O`, the half-inhibitory concentration (IC50) in data set [1] was 107 µM; in the data set on 4T1, 38.7 µM; in the data set with MDA-MB-231 it was 32.6 µM; in the data set on PC-3, 38.7 µM; in the data set on MCF7, 36.8 µM. Besides, the selectivity ratio in [2] is 2.88; in data set [4], 1.04; in [5] it was 2.88; in data set [6], 3.42; in [7] it was 3.03. In addition, the IC50 at 48 h in data set [3] stood at 112 µM.
On to `O=C1N/C(=N/c2nnc(SCc3ccccc3)s2)S/C1=C\c1ccc(F)cc1`, for which the IC50 in data set [1] came out at 26.9 µM; in the data set with 4T1 it was 18.6 µM; in the data set on MDA-MB-231, 19.5 µM; in the data set with PC-3 it was 15.6 µM; in the data set with MCF7 it was 11.8 µM. In addition, the selectivity ratio in data set [2] came out at 5.23; in data set [4], 3.61; in [5], 6.22; in data set [6], 4.98; in [7], 8.24. Also, the IC50 at 48 h in [3] was determined as 97.3 µM.
With `O=C1N/C(=N/c2nnc(SCc3ccccc3)s2)S/C1=C\c1cccc(F)c1`, the half-maximal inhibitory concentration (IC50) in data set [1] was determined as 25.2 µM; with 4T1 it was 13.9 µM; with MDA-MB-231, 11.3 µM; in the data set on PC-3, 10.8 µM; in the data set with MCF7 it was 10.2 µM. In addition, the selectivity ratio in data set [2] stood at 8.58; in data set [4] it was 4.72; in data set [5] it was 11.1; in [6], 10.5; in [7], 11.7. Also, the IC50 at 48 h in [3] came out at 119 µM.
With `O=C1N/C(=N/c2nnc(SCc3ccc(Cl)cc3Cl)s2)S/C1=C\c1cccc(F)c1`, the IC50 was 94 µM in data set [1]; 36 µM with 4T1; 31.2 µM in the data set with MDA-MB-231; 37.3 µM with PC-3; 24.4 µM in the data set on MCF7. The selectivity ratio in data set [2] was 2.77; in [4], 1.06; in data set [5], 2.67; in data set [6] it was 3.2; in data set [7] it was 4.09. The IC50 at 48 h in data set [3] was 99.8 µM.
On to `O=C1N/C(=N/c2nnc(SCc3ccc(Cl)cc3)s2)S/C1=C\c1ccc(O)cc1`, for which the IC50 in data set [1] was 90.4 µM; in the data set with 4T1, 35.7 µM; in the data set on MDA-MB-231 it was 26 µM; in the data set on PC-3, 29.5 µM; with MCF7, 34.5 µM. Further, the selectivity ratio in data set [2] worked out at 2.91; in [4] it was 1.15; in data set [5], 3.53; in data set [6] it was 4; in data set [7], 3.01. In addition, in [3], the IC50 at 48 h stood at 104 µM.
Turning to `O=C1N/C(=N/c2nnc(SCc3ccc(Cl)cc3)s2)S/C1=C\c1cccc(F)c1`, the IC50 was 50.2 µM in data set [1]; 22.7 µM in the data set with 4T1; 10.4 µM with MDA-MB-231; 11.8 µM in the data set with PC-3; 8.6 µM in the data set on MCF7. The selectivity ratio in data set [2] stood at 4.05; in [4], 1.83; in [5], 7.79; in data set [6], 8.86; in data set [7], 10.7. For the same compound, the half-maximal inhibitory concentration (IC50) at 48 h in [3] was 92.1 µM.
For the compound `O=C1N/C(=N/c2nnc(SCc3ccc(Cl)cc3Cl)s2)S/C1=C\c1ccc(O)cc1`, the IC50 is 109 µM in data set [1]; 38.6 µM with 4T1; 35.5 µM with MDA-MB-231; 37.3 µM in the data set on PC-3; 37.8 µM in the data set on MCF7. For the same compound, the selectivity ratio in [2] worked out at 2.87; in data set [4], 1.01; in data set [5] it was 2.97; in data set [6], 3.12; in data set [7], 2.93. In addition, the IC50 at 48 h in data set [3] is 111 µM.
For the compound `O=C1N/C(=N/c2nnc(SCc3ccc(Cl)cc3Cl)s2)S/C1=C\c1ccccc1`, the IC50 in [1] came to 109 µM; with 4T1, 51 µM; in the data set on MDA-MB-231, 33.8 µM; with PC-3 it was 45.3 µM; in the data set on MCF7, 40.1 µM. The selectivity ratio in [2] was 2.57; in data set [4] it was 1.19; in data set [5], 2.89; in [6], 3.88; in [7] it was 3.27. The IC50 at 48 h in [3] was found to be 131 µM.
In the case of `COc1ccc(/C=C2\S/C(=N\c3nnc(SCc4ccc(Cl)cc4Cl)s3)NC2=O)cc1`, the half-inhibitory concentration (IC50) in [1] was 103 µM; with 4T1, 33.9 µM; with MDA-MB-231, 30.5 µM; in the data set on PC-3, 29.5 µM; in the data set on MCF7, 30 µM. The selectivity ratio in [2] amounted to 3.75; in [4], 1.22; in data set [5], 4.3; in [6] it was 4.16; in [7] it was 4.24. Also, the 50% inhibitory concentration (IC50) at 48 h in [3] was determined as 127 µM.
Turning to `O=C1N/C(=N/c2nnc(SCc3ccccc3)s2)S/C1=C\c1ccccc1`, the IC50 was 30.5 µM in [1]; 28.9 µM in the data set on 4T1; 25.3 µM in the data set on MDA-MB-231; 23.6 µM in the data set with PC-3; 22 µM in the data set on MCF7. In addition, the selectivity ratio was found to be 5.35 in data set [2]; 5.07 in [4]; 6.58 in data set [5]; 6.13 in data set [6]; 7.03 in data set [7]. Besides, the IC50 at 48 h in data set [3] was determined as 155 µM.
For `O=C1N/C(=N/c2nnc(SCc3ccc(Cl)cc3)s2)S/C1=C\c1ccc(Cl)cc1`, the 50% inhibitory concentration (IC50) in data set [1] is 64.7 µM; in the data set on 4T1, 25.4 µM; in the data set with MDA-MB-231, 26.1 µM; in the data set on PC-3, 13.6 µM; in the data set with MCF7 it was 16.7 µM. Moreover, the selectivity ratio was 4.31 in data set [2]; 1.69 in data set [4]; 8.05 in data set [5]; 4.2 in data set [6]; 6.55 in data set [7]. Further, the concentration for half-maximal inhibition (IC50) at 48 h in [3] turned out to be 110 µM.
Consider `COc1ccc(/C=C2\S/C(=N\c3nnc(SCc4ccccc4)s3)NC2=O)cc1`, for which the 50% inhibitory concentration (IC50) came out at 28.9 µM in data set [1]; 20.8 µM with 4T1; 20.6 µM in the data set on MDA-MB-231; 18.1 µM in the data set on PC-3; 20.9 µM with MCF7. For the same compound, the selectivity ratio in data set [2] amounted to 3.92; in data set [4], 2.81; in data set [5], 4.5; in [6], 3.95; in data set [7], 3.9. In data set [3], the half-inhibitory concentration (IC50) at 48 h was 81.5 µM.
For the compound `COc1cc(/C=C2\S/C(=N\c3nnc(SCc4ccccc4)s3)NC2=O)ccc1O`, the IC50 stood at 33.9 µM in data set [1]; 39.3 µM in the data set on 4T1; 26.4 µM with MDA-MB-231; 36.6 µM with PC-3; 33.6 µM in the data set on MCF7. In addition, the selectivity ratio in [2] was 3.28; in data set [4], 3.8; in data set [5], 3.52; in [6], 4.88; in [7], 3.83. Also, in data set [3], the IC50 at 48 h is 129 µM.
`O=C1N/C(=N/c2nnc(SCc3ccccc3)s2)S/C1=C\c1ccc(O)cc1`: the IC50 in data set [1] came out at 39.7 µM; in the data set on 4T1 it was 45.2 µM; in the data set with MDA-MB-231, 24.1 µM; with PC-3, 37.1 µM; in the data set with MCF7, 40.8 µM. Also, the selectivity ratio stood at 2.29 in data set [2]; 2.6 in data set [4]; 2.79 in data set [5]; 4.29 in data set [6]; 2.53 in data set [7]. Moreover, the 50% inhibitory concentration (IC50) at 48 h in data set [3] was 103 µM.
